# Measurements from patent US20050197371A1, “Urea derivatives as PDGFR modulators” (Ambit Biosciences Corporation, priority 2003, published 2005).
# Biological target: T1, PDGFRB(DKIN) (PDGFR-β) (Homo sapiens, UniProt P09619)
# T1 construct: PDGFRB(DKIN)
# Assay: Phage-display competitive binding assay, PDGFRB(DKIN)
# Settings: T7 phage displaying human PDGFR-β, DKIN construct; read-out: Binding Assay: PDGFRB(DKIN)
# Protocol: The term “ND” represents non-determined values.
# (§1) Briefly, T7 phage displaying human PDGFR-β were incubated with an affinity matrix coated with known PDGFR-β inhibitor in the presence of various concentrations of the soluble competitor molecules.
row,Compound,Kd [nM]
1,CC(C)(C)c1cc(NC(=O)Nc2ccc(NC(=O)c3ccccn3)cc2)no1 [Compound N188],< 100
2,Cc1nc(N)cc(Nc2ccc(NC(=O)Nc3cc(C(C)(C)C)on3)cc2)n1 [Compound O10],100 to 1000
3,COc1ccc(-c2noc(-c3ccc(NC(=O)Nc4cc(C(C)(C)C)on4)cc3)n2)c2ccccc12 [Compound P3],1000 to 10000
4,Cc1ccccc1-c1noc(-c2ccc(NC(=O)Nc3cc(C(C)(C)C)on3)cc2)n1 [Compound P4],< 100
5,CC(C)(C)c1cc(NC(=O)Nc2ccc(-c3nc(-c4cccc5ccccc45)no3)cc2)no1 [Compound P5],100 to 1000
6,CC(C)(C)c1cc(NC(=O)Nc2ccc(-c3nc(-c4ccc(Cl)cc4)no3)cc2)no1 [Compound P7],100 to 1000
7,CC(C)(C)c1cc(NC(=O)Nc2ccc(-c3nc(-c4ccc(C(F)(F)F)cc4)no3)cc2)no1 [Compound P8],> 10000
8,Cc1noc(-c2ccc(NC(=O)Nc3cc(C(C)(C)C)on3)cc2)n1 [Compound P9],< 100
9,CC(C)(C)c1cc(NC(=O)Nc2ccc(NS(=O)(=O)c3ccccc3)cc2)no1 [Compound V1],1000 to 10000
10,Cc1ccc(S(=O)(=O)Nc2ccc(NC(=O)Nc3cc(C(C)(C)C)on3)cc2)cc1 [Compound V2],1000 to 10000
11,CC(C)(C)c1cc(NC(=O)Nc2ccc(S(=O)(=O)Nc3ncccn3)cc2)no1 [Compound V3],> 10000
12,CC(=O)NS(=O)(=O)c1ccc(NC(=O)Nc2cc(C(C)(C)C)on2)cc1 [Compound V4],> 10000
13,Cc1ccc(NC(=O)Nc2cc(C(F)(F)F)cc(Cl)n2)cc1 [Compound W1],100 to 1000
14,O=C(Nc1ccc(Cl)cc1)Nc1ccno1 [Compound Z15],1000 to 10000
15,CC(C)CCOC(=O)c1nnsc1NC(=O)Nc1ccc(Br)cc1 [Compound Z36],> 10000
16,Cc1c(NC(=O)Nc2cc(C(C)(C)C)on2)c(=O)n(-c2ccccc2)n1C [Compound Z45],> 10000
17,Cn1c(SCC(=O)Nc2ccc(NC(=O)Nc3cc(C(C)(C)C)on3)cc2)nnc1-c1cccn(Cc2ccccc2)c1=O [Compound Z47],100 to 1000
18,O=C(Nc1ccc(Cl)cc1)Nc1ccc(-n2nc(Br)c(Br)c2Br)cc1 [Compound Z49],< 100
19,C=C/C(=C\C=C\Cl)NC(=O)Nc1ccc(C(=O)OCCOC)cc1 [Compound Z54],1000 to 10000
20,NC(=O)c1c(NC(=O)Nc2ccc(Cl)c(Cl)c2)sc2c1CCCC2 [Compound Z56],> 10000
21,Cc1sc(NC(=O)Nc2ccc(Cl)cc2)c(C(N)=O)c1C [Compound Z58],> 10000
22,O=C(Nc1ccccc1)Nc1ccc(-n2cnc(Cl)c2Cl)cc1 [Compound Z65],100 to 1000
23,COc1ccc(NC(=O)Nc2cc(C(F)(F)F)cc(Cl)n2)cc1 [Compound Z71],100 to 1000
24,O=C(Nc1ccc(Br)cc1)Nc1cc(C(F)(F)F)cc(Cl)n1 [Compound Z72],> 10000
25,O=C(Nc1ccc(Cl)cc1)Nc1cc(C(F)(F)F)cc(Cl)n1 [Compound Z76],> 10000

# Same assay, conditions: read-out: Binding Assay: PDGFRB(DKIN); T7 phage displaying human PDGFR-β, DKIN construct
row,Compound,Kd [nM]
1,CC(C)(C)c1cc(NC(=O)Nc2ccc(NC(=O)c3ncccc3O)cc2)no1 [Compound N134],< 100

# Biological target: T2, PDGFRB(JMplus) (PDGFR-β) (Homo sapiens, UniProt P09619)
# T2 construct: PDGFRB(JMplus)
# T2 sequence (P09619 600-962 limits assumed): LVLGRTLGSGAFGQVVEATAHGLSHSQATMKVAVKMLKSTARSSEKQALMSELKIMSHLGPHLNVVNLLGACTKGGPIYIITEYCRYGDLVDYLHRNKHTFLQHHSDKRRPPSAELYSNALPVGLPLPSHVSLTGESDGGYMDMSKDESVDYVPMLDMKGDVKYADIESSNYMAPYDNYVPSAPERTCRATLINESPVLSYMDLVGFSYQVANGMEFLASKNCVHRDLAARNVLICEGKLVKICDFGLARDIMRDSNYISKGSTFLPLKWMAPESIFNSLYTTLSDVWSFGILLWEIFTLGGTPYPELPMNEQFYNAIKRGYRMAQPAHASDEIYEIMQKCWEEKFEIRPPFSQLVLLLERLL
# Assay: Phage-display competitive binding assay, PDGFRB(JMplus)
# Settings: not given
# Protocol: as §1
row,Compound,Kd [nM]
1,CC(C)(C)c1cc(NC(=O)Nc2ccc(NC(=O)c3ncccc3O)cc2)no1 [Compound N134],< 100

# Same assay, conditions: T7 phage displaying human PDGFR-β, JMplus construct; read-out: Binding Assay: PDGFRB(JMplus)
row,Compound,Kd [nM]
1,CC(C)(C)c1cc(NC(=O)Nc2ccc(NC(=O)c3ccccn3)cc2)no1 [Compound N188],< 100

# Biological target: T3, PDGFRB(JMminus) (PDGFR-β) (Homo sapiens, UniProt P09619)
# T3 construct: PDGFRB(JMminus)
# T3 sequence (P09619 600-962 limits assumed): as above
# Assay: Phage-display competitive binding assay, PDGFRB(JMminus)
# Settings: not given
# Protocol: as §1
row,Compound,Kd [nM]
1,CC(C)(C)c1cc(NC(=O)Nc2ccc(NC(=O)c3ncccc3O)cc2)no1 [Compound N134],< 100

# Same assay, conditions: T7 phage displaying human PDGFR-β, JMminus construct; read-out: Binding Assay: PDGFRB(JMminus)
row,Compound,Kd [nM]
1,CC(C)(C)c1cc(NC(=O)Nc2ccc(NC(=O)c3ccccn3)cc2)no1 [Compound N188],< 100
